The values below come from patent US8895504B2, “Amylin derivatives” (priority 2008, dated 2014).

*1 amine or outer side, *2 acyl side, *3 side chain or, on linkers, in order; H or OH if unused. Where a SMILES comes first, the peptide text is derived from it. Bridges are numbered along the chain shown (N, C = ends). Side-chain parts run from the residue outwards. The star is where a group is joined. C20 diacid = O=C(O)CCCCCCCCCCCCCCCCCCC(=O)*; γGlu = O=C(O)[C@H](CCC(=O)[*:2])N[*:1]

This test deals with T1, Amylin 3(a) receptor (human calcitonin receptor (CTa) and RAMP-3) (Homo sapiens, UniProt O60896+P30988).
T1 construct: expressed in transfected cells; host or cells: BHK570 cells, stably transfected with a CRE-luciferase reporter
The test can be described thus: Luciferase assay (III), BHK Amylin 3(a)//CRE-luc cells. The test is classed as cell-based. To be noted: BHK cells with Amylin 3(a) receptor and CRE luciferase reporter, 4 hours incubation; read-out: Potency Luciferase. The source says:
It has previously been published (Poyner D R et al 2002, Pharmacological Reviews 54(2) 233-246) that activation of Amylin receptors (coexpression of Calcitonin receptor and receptor activity modifying peptides RAMPs) by Amylin leads to an increase in the intracellular concentration of cAMP. Consequently, transcription is activated at promoters containing multiple copies of the cAMP response element (CRE). It is thus possible to measure Amylin activity by use of a CRE luciferase reporter gene introduced into BHK cells also expressing an Amylin receptor.
2. Construction of an Amylin 3(a)/CRE-luc Cell Line
A BHK570 cell line stably transfected with the human calcitonin receptor (CTa) and a CRE-responsive luciferase reportergene. The cell line was further transfected with RAMP-3, using standard methods. This turns the Calcitonin receptor into an Amylin 3(a) receptor. Methotrexate, Neomycin, and Hygromycin are selection markers for luciferase, the Calcitonin receptor, and RAMP-3, respectively.
3. Amylin Luciferase Assay
To perform activity assays, BHK Amylin 3(a)//CRE-luc cells were seeded in white 96 well culture plates at a density of about 20,000 cells/well. The cells were in 100 μl growth medium (DMEM with 10% FBS, 1% Pen/Strep, 1 mM Na-pyruvate, 250 nM Methotrexate, 500 μg/ml Neomycin, and 400 μg/ml Hygromycin). After incubation overnight at 37° C. and 5% CO2, the growth medium was replaced by 50 μl/well assay medium (DMEM (without phenol red), Glumamax™, 10% FBS, and 10 mM Hepes, pH 7,4). Further, 50 μl/well of standard or sample in assay buffer were added. After 4 hours incubation at 37° C. and 5% CO2, the assay medium with standard or sample were removed and replaced by 100 μl/well PBS. Further, 100 μl/well LucLite™ was added. The plates were sealed and incubated at room temperature for 30 minutes. Finally, luminescence was measured on a TopCounter (Packard) in SPC (single photon counting) mode.

T1 sequence (O60896 24-148): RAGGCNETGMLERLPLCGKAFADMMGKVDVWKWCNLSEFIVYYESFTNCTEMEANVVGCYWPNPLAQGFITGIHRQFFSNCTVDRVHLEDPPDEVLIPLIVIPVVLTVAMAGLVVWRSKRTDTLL
T1 sequence (P30988 25-474): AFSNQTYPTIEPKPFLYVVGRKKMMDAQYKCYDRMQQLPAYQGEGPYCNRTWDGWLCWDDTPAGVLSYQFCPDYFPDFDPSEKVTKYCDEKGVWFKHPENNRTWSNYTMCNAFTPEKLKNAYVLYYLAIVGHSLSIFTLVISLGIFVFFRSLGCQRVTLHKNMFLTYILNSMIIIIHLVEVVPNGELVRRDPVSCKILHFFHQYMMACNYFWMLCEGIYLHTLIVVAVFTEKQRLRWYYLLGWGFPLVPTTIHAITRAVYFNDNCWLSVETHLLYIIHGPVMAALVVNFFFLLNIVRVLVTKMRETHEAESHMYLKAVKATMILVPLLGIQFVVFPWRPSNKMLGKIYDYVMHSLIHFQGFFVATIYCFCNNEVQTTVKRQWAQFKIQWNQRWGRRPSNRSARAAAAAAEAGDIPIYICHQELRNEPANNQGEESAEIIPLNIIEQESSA

As for `CC[C@H](C)[C@H](NC(=O)[C@@H]1CCCN1C(=O)CNC(=O)[C@H](Cc1ccccc1)NC(=O)[C@H](CC(N)=O)NC(=O)[C@H](CC(N)=O)NC(=O)[C@H](CO)NC(=O)[C@H](CO)NC(=O)[C@H](Cc1c[nH]cn1)NC(=O)[C@H](Cc1c[nH]cn1)NC(=O)[C@H](CC(C)C)NC(=O)[C@H](Cc1ccccc1)NC(=O)[C@H](CCC(=O)O)NC(=O)[C@H](C)NC(=O)[C@H](CC(C)C)NC(=O)[C@H](CCCNC(=N)N)NC(=O)[C@H](CCC(N)=O)NC(=O)[C@@H](NC(=O)[C@H](C)NC(=O)[C@@H]1CSSC[C@H](NC(=O)[C@H](CCC(=O)O)NC(=O)[C@H](CCCNC(=N)N)NC(=O)[C@H](CCC(=O)O)NC(=O)[C@H](CCC(=O)O)NC(=O)CCCCCCCCCCCCCCCCCCC(=O)O)C(=O)N[C@@H](CC(N)=O)C(=O)N[C@@H]([C@@H](C)O)C(=O)N[C@@H](C)C(=O)N[C@@H]([C@@H](C)O)C(=O)N1)[C@@H](C)O)C(=O)N[C@@H](CC(C)C)C(=O)N1CCC[C@H]1C(=O)N1CCC[C@H]1C(=O)N[C@H](C(=O)N[C@@H](CCC(=O)O)C(=O)N[C@H](C(=O)NCC(=O)N[C@@H](CO)C(=O)N[C@@H](CC(N)=O)C(=O)N[C@H](C(=O)N[C@@H](Cc1ccc(O)cc1)C(N)=O)[C@@H](C)O)C(C)C)[C@@H](C)O` [Example 1, N-alpha-(19-carboxynonadecanoyl)-Glu-Glu-Arg-[Glu1,Glu14,His17,Glu31]-pramlintide] ({C20 diacid}-EERECNTATCATQRLAEFLHHSSNNFGPILPPTEVGSNTY-NH2; disulfide 5-10), the EC50 is 0.9 nM.
Under `CC[C@H](C)[C@H](NC(=O)[C@@H]1CCCN1C(=O)CNC(=O)[C@H](Cc1ccccc1)NC(=O)[C@H](CC(N)=O)NC(=O)[C@H](CC(=O)O)NC(=O)[C@H](CO)NC(=O)[C@H](CO)NC(=O)[C@H](Cc1c[nH]cn1)NC(=O)[C@H](Cc1c[nH]cn1)NC(=O)[C@H](CC(C)C)NC(=O)[C@H](Cc1ccccc1)NC(=O)[C@H](CC(N)=O)NC(=O)[C@H](C)NC(=O)[C@H](CC(C)C)NC(=O)[C@H](CCCNC(=N)N)NC(=O)[C@H](CCC(N)=O)NC(=O)[C@@H](NC(=O)[C@H](C)NC(=O)[C@@H]1CSSC[C@H](NC(=O)[C@@H](N)CCCCN)C(=O)N[C@@H](CCCCNC(=O)[C@H](CCC(=O)O)NC(=O)[C@H](CCCNC(=N)N)NC(=O)[C@H](CCC(=O)O)NC(=O)[C@H](CCC(=O)O)NC(=O)CCCCCCCCCCCCCCCCCCC(=O)O)C(=O)N[C@@H]([C@@H](C)O)C(=O)N[C@@H](C)C(=O)N[C@@H]([C@@H](C)O)C(=O)N1)[C@@H](C)O)C(=O)N[C@@H](CC(C)C)C(=O)N1CCC[C@H]1C(=O)N1CCC[C@H]1C(=O)N[C@H](C(=O)N[C@@H](CC(N)=O)C(=O)N[C@H](C(=O)NCC(=O)N[C@@H](CO)C(=O)N[C@@H](CC(N)=O)C(=O)N[C@H](C(=O)N[C@@H](Cc1ccc(O)cc1)C(N)=O)[C@@H](C)O)C(C)C)[C@@H](C)O` [Example 2, N-epsilon3-(19-carboxynonadecanoyl-Glu-Glu-Arg-Glu)-[Lys3,His17,Asp21]-pramlintide] (H-KCK([Glu-Arg-Glu-Glu-C20 diacid])TATCATQRLANFLHHSSDNFGPILPPTNVGSNTY-NH2; disulfide 2-7) stands 0.9 nM; under `CC[C@H](C)[C@H](NC(=O)[C@@H]1CCCN1C(=O)CNC(=O)[C@H](Cc1ccccc1)NC(=O)[C@H](CC(N)=O)NC(=O)[C@H](CC(=O)O)NC(=O)[C@H](CO)NC(=O)[C@H](CO)NC(=O)[C@H](Cc1c[nH]cn1)NC(=O)[C@H](Cc1c[nH]cn1)NC(=O)[C@H](CC(C)C)NC(=O)[C@H](Cc1ccccc1)NC(=O)[C@H](CC(N)=O)NC(=O)[C@H](C)NC(=O)[C@H](CC(C)C)NC(=O)[C@H](CCCNC(=N)N)NC(=O)[C@H](CCC(N)=O)NC(=O)[C@@H](NC(=O)[C@H](C)NC(=O)[C@@H]1CSSC[C@H](NC(=O)[C@@H](N)CCCCN)C(=O)N[C@@H](CCCCNC(=O)[C@H](CCC(=O)O)NC(=O)[C@H](CCC(=O)O)NC(=O)[C@H](CCC(=O)O)NC(=O)[C@H](CCC(=O)O)NC(=O)CCCCCCCCCCCCCCCCCCC(=O)O)C(=O)N[C@@H]([C@@H](C)O)C(=O)N[C@@H](C)C(=O)N[C@@H]([C@@H](C)O)C(=O)N1)[C@@H](C)O)C(=O)N[C@@H](CC(C)C)C(=O)N1CCC[C@H]1C(=O)N1CCC[C@H]1C(=O)N[C@H](C(=O)N[C@@H](CC(N)=O)C(=O)N[C@H](C(=O)NCC(=O)N[C@@H](CO)C(=O)N[C@@H](CC(N)=O)C(=O)N[C@H](C(=O)N[C@@H](Cc1ccc(O)cc1)C(N)=O)[C@@H](C)O)C(C)C)[C@@H](C)O` [Example 4, N-epsilon3-(19-carboxynonadecanoyl-Glu-Glu-Glu-Glu)-[Lys3,His17,Asp21]-pramlintide] (H-KCK([Glu-Glu-Glu-Glu-C20 diacid])TATCATQRLANFLHHSSDNFGPILPPTNVGSNTY-NH2; disulfide 2-7), 2 nM.
Under `CC[C@H](C)[C@H](NC(=O)[C@@H]1CCCN1C(=O)CNC(=O)[C@H](Cc1ccccc1)NC(=O)[C@H](CC(N)=O)NC(=O)[C@H](CC(N)=O)NC(=O)[C@H](CO)NC(=O)[C@H](CO)NC(=O)[C@H](Cc1c[nH]cn1)NC(=O)[C@H](Cc1c[nH]cn1)NC(=O)[C@H](CC(C)C)NC(=O)[C@H](Cc1ccccc1)NC(=O)[C@H](CC(N)=O)NC(=O)[C@H](C)NC(=O)[C@H](CC(C)C)NC(=O)[C@H](CCCNC(=N)N)NC(=O)[C@H](CCC(N)=O)NC(=O)[C@@H](NC(=O)[C@H](C)NC(=O)[C@@H]1CSSC[C@H](NC(=O)[C@H](CCCNC(=N)N)NC(=O)CC[C@H](NC(=O)CCCCCCCCCCCCCCCCCCC(=O)O)C(=O)O)C(=O)N[C@@H](CC(N)=O)C(=O)N[C@@H]([C@@H](C)O)C(=O)N[C@@H](C)C(=O)N[C@@H]([C@@H](C)O)C(=O)N1)[C@@H](C)O)C(=O)N[C@@H](CC(C)C)C(=O)N1CCC[C@H]1C(=O)N1CCC[C@H]1C(=O)N[C@H](C(=O)N[C@@H](CC(N)=O)C(=O)N[C@H](C(=O)NCC(=O)N[C@@H](CO)C(=O)N[C@@H](CC(N)=O)C(=O)N[C@H](C(=O)N[C@@H](Cc1ccc(O)cc1)C(N)=O)[C@@H](C)O)C(C)C)[C@@H](C)O` [Example 6, N-alpha-[(S)-4-Carboxy-4-(19-carboxynonadecanoylamino)butyryl]-[Arg1,His17]-pramlintide] ({C20 diacid-γGlu}-RCNTATCATQRLANFLHHSSNNFGPILPPTNVGSNTY-NH2; disulfide 2-7) stands 0.3 nM; under `CC[C@H](C)[C@H](NC(=O)[C@@H]1CCCN1C(=O)CNC(=O)[C@H](Cc1ccccc1)NC(=O)[C@H](CC(N)=O)NC(=O)[C@H](CC(N)=O)NC(=O)[C@H](CO)NC(=O)[C@H](CO)NC(=O)[C@H](Cc1c[nH]cn1)NC(=O)[C@H](Cc1c[nH]cn1)NC(=O)[C@H](CC(C)C)NC(=O)[C@H](Cc1ccccc1)NC(=O)[C@H](CC(N)=O)NC(=O)[C@H](C)NC(=O)[C@H](CC(C)C)NC(=O)[C@H](CCCNC(=N)N)NC(=O)[C@H](CCC(N)=O)NC(=O)[C@@H](NC(=O)[C@H](C)NC(=O)[C@@H]1CSSC[C@H](NC(=O)[C@H](CCCCN)NC(=O)CC[C@H](NC(=O)CCCCCCCCCCCCCCCCCCC(=O)O)C(=O)O)C(=O)N[C@@H](CC(N)=O)C(=O)N[C@@H]([C@@H](C)O)C(=O)N[C@@H](C)C(=O)N[C@@H]([C@@H](C)O)C(=O)N1)[C@@H](C)O)C(=O)N[C@@H](CC(C)C)C(=O)N1CCC[C@H]1C(=O)N1CCC[C@H]1C(=O)N[C@H](C(=O)N[C@@H](CC(N)=O)C(=O)N[C@H](C(=O)NCC(=O)N[C@@H](CO)C(=O)N[C@@H](CC(N)=O)C(=O)N[C@H](C(=O)N[C@@H](Cc1ccc(O)cc1)C(N)=O)[C@@H](C)O)C(C)C)[C@@H](C)O` [Example 7, N-alpha-[(S)-4-Carboxy-4-(19-carboxynonadecanoylamino)butyryl]-[His17]-pramlintide] ({C20 diacid-γGlu}-KCNTATCATQRLANFLHHSSNNFGPILPPTNVGSNTY-NH2; disulfide 2-7), 0.2 nM.
